Consider 10 molecules from PubChem BioAssay AID588465 (NMMLSC, 2011).

In this experiment the target is Beta-adrenergic receptor kinase 1 (Homo sapiens) (UniProt P25098). The experiment can be described thus: inhibition of GRK2-catalyzed rhodopsin phosphorylation – biochemical, set 1, orthogonal assay for GRK2 aptamer-displacement inhibitor project, late-stage follow-up (AID 588465). The note with it: 32P incorporation, ROS, at 200 µM, stronger effect = lower value.
Beta-adrenergic receptor kinase 1 (Homo sapiens), sequence (P25098 whole entry, looked up): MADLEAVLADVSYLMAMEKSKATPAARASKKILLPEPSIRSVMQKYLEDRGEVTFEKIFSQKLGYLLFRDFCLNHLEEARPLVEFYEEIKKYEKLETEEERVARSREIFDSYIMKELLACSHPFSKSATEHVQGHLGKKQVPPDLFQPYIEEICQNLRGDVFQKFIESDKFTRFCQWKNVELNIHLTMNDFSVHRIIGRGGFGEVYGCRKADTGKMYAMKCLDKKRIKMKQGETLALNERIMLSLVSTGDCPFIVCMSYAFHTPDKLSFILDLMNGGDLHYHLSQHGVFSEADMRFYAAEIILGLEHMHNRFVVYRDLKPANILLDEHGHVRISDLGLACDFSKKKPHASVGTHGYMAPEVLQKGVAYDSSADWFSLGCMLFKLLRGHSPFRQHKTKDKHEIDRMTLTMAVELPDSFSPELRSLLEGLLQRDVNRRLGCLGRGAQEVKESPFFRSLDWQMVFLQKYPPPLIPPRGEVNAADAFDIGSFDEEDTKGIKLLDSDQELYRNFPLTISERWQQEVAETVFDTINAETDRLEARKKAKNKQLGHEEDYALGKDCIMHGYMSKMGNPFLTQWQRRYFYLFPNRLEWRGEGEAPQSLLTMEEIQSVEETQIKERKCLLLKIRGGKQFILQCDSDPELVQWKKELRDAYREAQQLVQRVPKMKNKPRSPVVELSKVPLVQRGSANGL
Take `COc1ccc(CNC(=O)CCS(=O)(=O)c2ccc(Br)cc2)cc1`: the percent response (negative = inhibition) is -59.5%.

In the case of `Cc1cccc(N2CCN(C(=O)CCS(=O)(=O)c3ccc(Br)cc3)CC2C)c1` (stereo not given), the percent response (negative = inhibition) is -24%.

As for `Cc1cc(=O)[nH]c(SCC(=O)NCc2ccco2)n1`, the percent response (negative = inhibition) was -17.7%.

Consider `Cc1cc2ccccc2n1CCNC(=O)c1cccs1`, for which the percent response (negative = inhibition) is -42.4%.

For the molecule `Cc1ccccc1NC(=O)CCS(=O)(=O)c1ccc(Br)cc1`, the percent response (negative = inhibition) was -12.6%.

For the molecule `O=C(CCS(=O)(=O)c1ccc(Br)cc1)Nc1cc(F)ccc1F`, the percent response (negative = inhibition) is -37.5%.

On to `CCOc1ccc(CCNC(=O)CCS(=O)(=O)c2ccc(Br)cc2)cc1OCC`, for which the percent response (negative = inhibition) was -69.7%.

For the molecule `O=C(CCS(=O)(=O)c1ccc(Br)cc1)NCCc1ccc(Cl)cc1`, the percent response (negative = inhibition) was -35.6%.

Turning to `CCc1ccccc1NC(=O)CCS(=O)(=O)c1ccc(Br)cc1`, the percent response (negative = inhibition) is -26%.

Turning to `O=C(O)C1CC(=O)N(c2ccc3c(c2)OCCO3)C1` (stereo not given), the percent response (negative = inhibition) was -77.7%.
